Reference: patent US8343539B2, “Compounds that bind α5β1 integrin and methods of use” (Regents of the University of Minnesota, priority 2006, dated 2013)
“Also recorded” adds a separate entry of the source. Where no end group is shown, it is not given here. (C16)2 = not defined here

Key:
Type in all cases: cell-based, human
HUVECs [1] = assay: HUVEC adhesion on LB membranes of peptide-amphiphiles (Example 1); settings: no serum; for HUVEC adhesion compared to FN: seeded 497 cells/mm^2
From the text: Surface preparation: Peptide-amphiphiles, listed in Table 1, were synthesized as described in the literature (Berndt et al., J. Am. Chem. Soc., 1995; 117:9515-9522). Langmuir-Blodgett (LB) membranes constructed from peptide-amphiphiles were deposited onto 15 mm mica disks as described elsewhere (Kokkoli et al., Langmuir, 2004; 20:2397-2404). Shortly before cell assays, the LB films were transferred into 24-well plates containing 1× phosphate buffered saline (PBS) solution (Mediatech), without exposing surfaces to air, as they rearrange to form multilayers (Hansma et al., Method. Cell Biol., 2002; 69:163-193). After equilibrating for 5-10 minutes, PBS was exchanged with 1 ml of MCDB-131 basal media (Sigma) supplemented with 0.1% bovine serum albumin (BSA) (Sigma) and antibiotics (Sigma) (2.5 μg/ml gentamicin, 2.5 μg/ml amphotericin B, 50 U/ml penicillin, and 50 μg/ml streptomycin), referred to as 0.1% BSA media. Surfaces were equilibrated at 37° C., 5% CO2 for 30-60 minutes before adding the cells. Human fibronectin-coated round coverslips (FN) 22 mm in diameter (BD Biosciences) were put into 12-well plates and 2 ml of 0.1% BSA media was added to each well. Surfaces were equilibrated for 30-60 minutes at 37° C., 5% CO2.
Cell culture: Human umbilical vein endothelial cells, HUVECs, (Cambrex Corporation) were cultured in MCDB-131 containing 20% fetal bovine serum (FBS) (Atlas Biologicals) at 37° C., 5% CO2. Other nutrients and antibiotics supplementing the media were added based on an optimal HUVEC proliferation study (Terramani et al., In Vitro Cell Dev. Biol.—Animal, 2000; 36:125-132). Media was changed in the culture flasks every other day. Cells used for adhesion and imaging studies were in passages 3-4.
Cell adhesion experiments: After cells became 90% confluent they were washed with PBS, trypsinized with 0.25% Trypsin-EDTA (Cambrex Corporation), neutralized with MCDB-131 with 2% FBS, and spun at 1000 rpm for 10 minutes. The supernatant was removed and the cell pellet was resuspended in 0.1% BSA media. Cells were counted with a hemocytometer and seeded onto LB and FN surfaces at a density of 497 cells/mm^2. Surfaces were incubated with cells in 0.1% BSA media at 37° C., 5% CO2, for 1, 4, 12, 24, 48, and 72 hours. Cell adhesion was quantified using the CyQuant Cell Proliferation Assay Kit, with a dye that binds to cellular nucleic acids, following the manufacturer's protocol (Molecular Probes). A calibration standard curve was created for each experiment. The plates were read on a SpectraMAX GeminiXS (Molecular Devices).

HUVECs [2] = assay: HUVEC spreading on substrates (cell area)
Procedure: (§1) Cell spreading and fibronectin production experiments: Surface transferring, cell seeding, and incubation were done in the same manner as in the adhesion experiment, with a cell density of 497 cells/mm^2, and incubation times of 1, 12, 24, 48, and 72 hour. At the end of each incubation, the surfaces were removed, washed with […] of PBS, and fixed in 1 ml of 4% paraformaldehyde (Sigma) in PBS for 15 minutes at 37° C., 5% CO2. After washing with PBS, surfaces were first labeled for secreted fibronectin: surfaces were subjected to a blocking solution (0.1% BSA in PBS) for 30 minutes, incubated for 1 hour with a primary antibody specific for secreted fibronectin (mouse anti-human fibronectin (P1H11) monoclonal antibody (Chemicon Int.) at a 1:500 dilution in blocking solution, and then for 45 minutes with a secondary antibody (IgG fluorescein (FITC) conjugated antibody; Chemicon Int.) at a 1:200 dilution in PBS. As a final step, cell membranes and nuclei were stained using the Image-iT™ LIVE Plasma Membrane and Nuclear Labeling Kit following the manufacturer's protocol for labeling fixed cells (Molecular Probes). After final washing, surfaces were mounted onto glass slides and stored at 4° C. protected from light. An inverted fluorescent microscope (Nikon Eclipse TE200 with Pixcell II LCM) was used for imaging. Fibronectin production was assessed visually, by comparing 10-20 fluorescence images from two samples for each substrate (two independent experiments performed at different days). Cell spreading was quantified from two samples per substrate (two independent experiments performed at different days) by measuring cell area with the NIH imaging software.

HUVECs [3] = assay: Extracellular fibronectin production by HUVECs (Example 1)
Procedure: as §1

HUVECs [4] = assay: HUVEC adhesion timed experiments on LB membranes (Example 2)
Procedure: Surface preparation: Each peptide-amphiphile was used to form homogenous LB membranes as in previous work (Kokkoli Langmuir 2004; 20:2397-2404), except that both the water and 15 mm mica disks used had been autoclaved for sterility. All depositions were done at a surface pressure between 41 and 47 mN/m, well below the collapse pressure and in the liquid-condensed or solid phase. Approximately 90 minutes before cells were seeded on the LB films to begin cell adhesion experiments, mica surfaces were transferred into 1× phosphate buffered saline (PBS), with particular care taken to ensure films were not exposed to air. After 5-10 minutes of equilibration, surfaces were transferred into 24-well plates containing a supplemented MCDB-131 basal media (Sigma), as described in Example 1. Following surface transfer, 24-well plates were moved to a 37° C., 5% CO2 incubator for 45-60 minutes. As a control, 22 mm diameter human fibronectin-coated coverslips (BD Biosciences), referred to as FN, were put into 12-well plates, covered with 2 ml of the supplemented media, and also incubated for 45-60 minutes.
Cell culture: Human umbilical vein endothelial cells, HUVECs (Cambrex Corporation), were cultured as described previously (see Example 1). Only cells from passage 3 were used in all studies.
Cell adhesion experiments: Flasks of HUVECs with at least 90% confluency were washed with 1×PBS, trypsinized with 0.25% Trypsin-EDTA (Fisher Scientific), and neutralized with 2% fetal bovine serum in MCDB-131 basal media. The suspended cells from all flasks were placed in one 50 ml centrifuge tube and centrifuged at 1000 rpm for 5 minutes. The media was removed and the cell pellet was resuspended in the supplemented media described above. A hemocytometer was used to count the cells and then 497 cells/mm^2 were seeded onto both LB and FN surfaces. Surfaces were incubated with cells at 37° C., 5% CO2 for 1, 4, or 12 hours. Cell adhesion following these times was determined using the CyQuant cell proliferation assay kit (Molecular Probes), which measures the fluorescence of a cellular nucleic acid-binding dye using the SpectraMAX GeminiXS plate reader (Molecular Devices). Standard calibration curves were created within each experiment for both 12- and 24-well plates.

**Q.** “(C16)2-Glu-C2-KSSPHSRNSGSGSGSGSGRGDSP ({(C16)2-Glu-C2}-KSSPHSRNSGSGSGSGSGRGDSP; not fully specified; reading uncertain) [PR_b]” was tested. Which “HUVEC adhesion compared to FN” value (HUVECs [1]; 1-24 hours) did it give?
**A.** higher adhesion than FN

**Q.** And the “Ability of substrate to sustain HUVEC adhesion over time” value (HUVECs [1]; 1-72 hours)?
**A.** effectively adhered

**Q.** And the “HUVEC adhesion compared to the other peptide surfaces” value (HUVECs [1]; 1-72 hours)?
**A.** most promising sequence; also recorded: outperformed all other peptide substrates; also recorded: outperforms all other peptide surfaces

**Q.** And the “HUVEC adhesion compared to FN” value (HUVECs [1]; 48-72 hours)?
**A.** similar; also recorded: equivalent

**Q.** What about the “HUVEC spreading (cell area)” value (HUVECs [2]; 1-24 hours) of the same substance?
**A.** mostly spread

**Q.** And the “HUVEC spreading, rank among surfaces” value (HUVECs [2]; all times examined, 1-72 hours)?
**A.** spread the most

**Q.** What about the “Fibronectin secretion by adhered HUVECs” value (HUVECs [3]; after 48 hours) of the same substance?
**A.** fully covered with secreted fibronectin

**Q.** What about the “Amount of fibronectin secretion, PR_b versus FN” value (HUVECs [3]; all times examined) of the same substance?
**A.** comparable for both substrates

**Q.** What about the “HUVEC adhesion compared with FN, overall” value (HUVECs [4]; 1, 4 and 12 hours) of the same substance?
**A.** outperform the positive control fibronectin at all times; also recorded: better than FN at all times; also recorded: statistically better than both Pr_f and the control FN

**Q.** And the “HUVEC adhesion compared with Pr_c” value (HUVECs [4]; 1, 4 and 12 hours)?
**A.** significantly better than Pr_c at all times except 1 hour

**Q.** What about the “HUVEC adhesion compared with Pr_d” value (HUVECs [4]; 1, 4 and 12 hours) of the same substance?
**A.** better than Pr_d at all times except 4 hours

**Q.** What about the “HUVEC adhesion compared with Pr_f” value (HUVECs [4]; 1, 4 and 12 hours) of the same substance?
**A.** statistically better than both Pr_f and the control FN; also recorded: much better

**Q.** And the “HUVEC adhesion level (description)” value (HUVECs [4]; 1, 4 and 12 hours)?
**A.** excellent adhesion at all times; also recorded: highest level of adhesion

**Q.** And the “HUVEC adhesion compared with Pr_e” value (HUVECs [4]; 1 and 4 hours)?
**A.** no statistical difference

**Q.** And the “HUVEC adhesion compared with Pr_e” value (HUVECs [4]; 12 hours)?
**A.** outperforms Pr_e; also recorded: better than Pr_e

**Q.** What about the “Maintenance / decay of HUVEC adhesion over time” value (HUVECs [4]; up to 12 hours) of the same substance?
**A.** most consistent adhesion over 12 hours; also recorded: smallest amount of decay over 12 hours; also recorded: least drop-off between 4 and 12 hours; also recorded: least amount of decay
